Source: patent publication US12357613B2, “Inhibitor for retinochoroidal disorders” (YAMAGUCHI UNIVERSITY, priority 2013, dated 2025)

Assays:
[1] = system: murine retinal pigment epithelial cells; assay: Test on inhibition of three-dimensional collagen gel atrophy in murine retinal pigment epithelial cell; assay type: cell-based, mouse; details: 1 ng/ml TGF-B2; 0.01, 0.1 or 1 μM; gel diameter after 24 hours; FIG. 1
Description: (Test on Inhibition of Three-Dimensional Collagen Gel Atrophy in Murine Retinal Pigment Epithelial Cell)
Murine retinal pigment epithelial cells were used to assess the inhibition effect of a tested compound on three-dimensional collagen gel atrophy in accordance with the method of Nishida et al (Investigative Ophthalmology & Visual Science 42: 1247-1253 (2001)). A subretinal sheet-like pigment epithelial cell comprising a retinal pigment epithelial cell from a mouse eyeball was collected and grown in primary culture. The cultured cell was detached and collected from a culture slide with 0.05% Trypsin-EDTA. After washing twice in a serum free medium (MEM: product number 11095; Gibco), a serum-free medium was added to make a cell suspension. Type I collagen (3 mg/ml: product number 637-00653; Nitta Gelatin Inc.), 10×MEM, reconstitution buffer (product number 635-00791; Nitta Gelatin Inc.), cell suspension (1.1×10^7 cells/ml in MEM), and water were mixed on ice at the volume ratio of 7:1:1:0.2:1.8. A culture dish coated with 1% BSA was inoculated with the mixture (0.5 ml), which was incubated for one hour at 37° C. to make a collagen gel. Then, 0.5 ml each of serum free media, to which 1 ng/ml of TGF-B2 (R&D) and 0, 0.01, 0.1, or 1 μM of the benzoic acid of the invention were added, was added onto collagen gels and incubated at 37° C. The diameter of gels was measured after 24 hours. […]

[2] = system: murine subretinal scar model; assay: Test on inhibition of murine subretinal scar formation; assay type: in vivo, mouse C57BL/6; details: 7 days after injection
Description: (Test on Inhibition of Murine Subretinal Scar Formation)
A murine subretinal scar model was produced to study whether the benzoic acid of the invention has an effect of inhibiting subretinal scar formation. A subretinal scar model in a mouse was produced by the method shown below in accordance with the method of Young-joon et al (Investigative Ophthalmology & Visual Science, 52, 6089-6095([…])).
(Production of Murine Subretinal Scar Model)
First, laser was irradiated (0.05 seconds, 200 mW, 532 nm) onto one location on the posterior pole of fundus of mouse C57BL/6 (purchased from SLC) to destroy the Bruch's membrane, which enabled infiltration of inflammatory cells from the choroid as well as creation of air bubbles subretinally.
A 33G needle was then inserted from pars plana. 0.5 μl of 4×10^7 ml thioglycollate elicited peritoneal macrophage and 1 μg, 5 μg, or 50 μg of the benzoic acid of the invention were subretinally injected. For the control, the benzoic acid of the invention was not injected (0 μg).
The subretinal area was observed and subretinal scar region was measure 7 days after injection of the macrophage and the benzoic acid of the invention described above.

Compound: CC1(C)CCC(C)(C)c2cc(Cn3cccn3)c(/C=C/c3ccc(C(=O)O)cc3)cc21 [benzoic acid of the invention, (E)-4-(2-{3-[(1H-pyrazole-1-yl)methyl]-5,5,8,8-tetramethyl-5,6,7,8-tetrahydronaphthalene-2-yl}vinyl)benzoic acid]
- collagen atrophy due to TGF (diameter of collagen gel) [1]: can inhibit collagen atrophy due to TGF
- subretinal scar region (fibrillation region) ([2]; 1 μg, 5 μg or 50 μg subretinally injected with macrophages, FIG. 2B): narrows as the amount of injection of the benzoic acid of the invention increases
- formation of a subretinal scar (subretinal observation) ([2]; 50 μg subretinally injected with macrophages, in comparison to the control, FIG. 2A): formation of a scar was inhibited
